Test results published in patent US20090232919A1 (priority 2006, published 2009).
Marks after values point to notes of the source that are not given here.

Key:
Type in all cases: in vivo, Male Sprague-Dawley rats
[1] = test system: GSH-Depleted Liver Injury in Rat Model; assay: Effect on GSH-depleted (BSO) acetaminophen liver injury in rat model; details: for necrosis of hepatic cell: orally administrated
Experimental: (§1) Male Sprague-Dawley rats (Samtako Co. Korea) weighing 140-160 g were used in the experiment and were allowed to access to feed (Harlan, teklan, USA) and drinking water. All animals were maintained in a controlled environment with temperatures at 22±2° C. and humidity at 55±5% with 12 hours of light and dark cycles for at least one week prior to use.
3 hours after the end of treatment, 2 mM/kg of BSO (buthionine sulfoximine) was intraperitoneally administrated to the rats to deplete GSH (glutathione) level of the rats. 1 hr after the treatment, the acetaminophen solution prepared in Reference Example (1.2 g/kg) was orally administrated into the rats to induce hepatotoxicity.
24 hours after the inducement, the survival rate of the rats was determined and the abdominal cavity was excised to deliver liver organ to test the effect of the inventive extract and compound obtained in Examples on liver injury.

[2] = test system: Acetaminophen-Induced Liver Injury in Rat Model; assay: Orally administrated extract and compound on acetaminophen-induced liver injury in rat model; details: for increased activity of blood ALT induced by acetaminophen / increased activity of blood LDH induced by acetaminophen: once a day for 4 days; for central necrosis and inflammation of liver (histo-pathological examination): oral, acetaminophen-induced, FIG. 3
Experimental: as §1
24 hours after the end of treatment, the acetaminophen solution prepared in Reference Example (1.2 g/kg) was orally administrated into the rats to induce hepatotoxicity.
24 hours after the treatment, the abdominal cavity was excised to deliver liver organ and blood to test the effect of the inventive extract and compound obtained in Examples on liver injury.
The effect on the indicators of liver injury known in the art, i.e., ALT (R. Rej, Clin. Chem., 24, pp 1971-1979, 1978) and LDH (S. Sherlock et al., Blackwell Science, London, p 23, 2002) activity in rat blood was determined.
The histo-pathological examination on liver organ was performed to determine the effect of inventive extract and compound on the necrosis and inflammation of liver induced by acetaminophen.

[3] = test system: acetaminophen-induced hepatotoxicity in rats; assay: Treating effect on liver injury (dosing after acetaminophen); details: 50 mg/kg orally from 1 hour after acetaminophen, versus PEG400 (40%) negative control; FIG. 7
Experimental: as §1
The acetaminophen solution prepared in Reference Example (1.2 g/kg) was orally administrated into the rats to induce hepatotoxicity. […] All the testing rats had been starved for 24 hours prior to acetaminophen-administration.
24 hours after the inducement, the abdominal cavity was excised to deliver liver organ to test the effect of the inventive compound obtained in Examples on liver injury.

[4] = test system: Acetaminophen-Induced Liver Injury in Rat Model; assay: Intravenously administrated extract and compound on acetaminophen-induced liver injury in rat model
Experimental: as §1
3 hours after the end of treatment, the acetaminophen solution prepared in Reference Example (1.2 g/kg) was orally administrated into the rats to induce hepatotoxicity.
24 hours after the inducement, the abdominal cavity was excised to deliver liver organ and blood to test the effect of the inventive extract and compound obtained in Examples on liver injury.

[5] = GSH-depleted (BSO) + acetaminophen, FIG. 6b
[6] = oral dose of 50 mg/kg and 100 mg/kg
[7] = intravenous dose of 5 mg/kg and 15 mg/kg, FIG. 4
[8] = oral dose of 25 mg/kg and 50 mg/kg, FIG. 1

SMILES: COC(=O)c1cc(OC)c2c(c1-c1c(C(=O)OC)cc(OC)c3c1OCO3)OCO2 [DDB, dimethyl-4,4′-dimethoxy-5,6,5′,6′-dimethylene dioxybiphenyl-2,2′-dicarboxylate]
- necrosis of hepatic cell [1, 5]: could not reduce
- Central vein neighboring cell necrosis (N) ([2]; APAP, 50 mg/kg, p.o, n = 10): 2.38 ± 0.5^
- Hepatic cell degeneration (HD) Central Vein (CV) ([2]; APAP, 50 mg/kg, p.o, n = 10): 0.4 ± 0.2
- Hepatic cell degeneration (HD) Limbic region ([2]; APAP, 50 mg/kg, p.o, n = 10): 0
- Hepatic cell degeneration (HD) Middle Region ([2]; APAP, 50 mg/kg, p.o, n = 10): 0.2 ± 0.2
- Inflammatory cell ([2]; APAP, 50 mg/kg, p.o, n = 10): 0^##
- Survival ratio (%) ([2]; APAP, 50 mg/kg, p.o, n = 10): 100%
- increased activity of blood ALT induced by acetaminophen [2, 6]: strikingly reduce
- increased activity of blood LDH induced by acetaminophen [2, 6]: strikingly reduce
- central necrosis and inflammation of liver (histo-pathological examination) [2]: reduced little

SMILES: O=C1C[C@@H](c2ccc(O)cc2)Oc2cc(O)ccc21 [LQ, liquiritigenin]
- necrosis of hepatic cell [3]: more strikingly inhibited
- Hepatic cell degeneration (HD) Central Vein (CV) ([1]; APAP + BSO, 15 mg/kg,i.v.): 0.2 ± 0.2
- Hepatic cell degeneration (HD) Limbic region ([1]; APAP + BSO, 15 mg/kg,i.v.): 2 ± 0.03
- Hepatic cell degeneration (HD) Middle Region ([1]; APAP + BSO, 15 mg/kg,i.v.): 0.2 ± 0.2
- Hepatic cell degeneration (HD) Central Vein (CV) ([1]; APAP + BSO, 50 mg/kg, p.o): 1.5 ± 0.5
- Hepatic cell degeneration (HD) Limbic region ([1]; APAP + BSO, 50 mg/kg, p.o): 1.5 ± 0.5
- Hepatic cell degeneration (HD) Middle Region ([1]; APAP + BSO, 50 mg/kg, p.o): 1.5 ± 0.5
- Inflammatory cell ([1]; APAP + BSO, 50 mg/kg, p.o): 0
- survival rate ([1]; GSH-depleted (BSO) + acetaminophen, versus 26.7% without treatment): strikingly increased
- hepatic injury ([1]; intravenously administrated for 2 days, GSH-depleted, FIG. 6b): apparently inhibits
- necrosis of hepatic cell [1, 5]: strikingly reduced
- Central vein neighboring cell necrosis (N) ([4]; APAP, 5 mg/kg, i. v): 0.2 ± 0.2
- Hepatic cell degeneration (HD) Central Vein (CV) ([4]; APAP, 5 mg/kg, i. v): 0.8 ± 0.4
- Hepatic cell degeneration (HD) Limbic region ([4]; APAP, 5 mg/kg, i. v): 0
- Hepatic cell degeneration (HD) Middle Region ([4]; APAP, 5 mg/kg, i. v): 0.6 ± 0.4
- Inflammatory cell ([4]; APAP, 5 mg/kg, i. v): 0
- increased activity of blood ALT induced by acetaminophen [4, 7]: significantly reduced
- increased activity of blood LDH induced by acetaminophen [4, 7]: significantly reduced
- central necrosis and inflammation of liver ([4]; intravenously administrated, FIG. 5): strikingly reduced
- Central vein neighboring cell necrosis (N) ([2]; APAP, 50 mg/kg, p.o, n = 10): 0.8 ± 0.8
- Hepatic cell degeneration (HD) Central Vein (CV) ([2]; APAP, 50 mg/kg, p.o, n = 10): 0.8 ± 0.8
- Hepatic cell degeneration (HD) Limbic region ([2]; APAP, 50 mg/kg, p.o, n = 10): 0.2 ± 0.2
- Hepatic cell degeneration (HD) Middle Region ([2]; APAP, 50 mg/kg, p.o, n = 10): 0.6 ± 0.6
- Inflammatory cell ([2]; APAP, 50 mg/kg, p.o, n = 10): 0^##
- increased activity of blood ALT induced by acetaminophen [2, 8]: significantly reduced
- increased activity of blood LDH induced by acetaminophen [2, 8]: significantly reduced
- central necrosis and inflammation of liver (histo-pathological examination) [2]: strikingly reduced
